Here are results for one compound from patent US20240263128A1, “METHOD OF PRODUCING BIOLOGICAL MATERIAL” (NIPPON TELEGRAPH AND TELEPHONE CORPORATION, priority 2021, published 2024).

The subject of experiment [1] is Cyanidiosyzon merolae. The experiment is described as follows: Amount of starch in unicellular red algae after cultivation. It counts as cell-based. The conditions noted are these: 2 mmol/L dimethyl 2-oxoglutarate, MA2 culture medium, suspension culture under light, 24 hours after addition, compared with control without promoter; average of three independent tests, FIG. 5. As for the experimental part: Unicellular red algae were cultured in suspension under a light condition and a promoter was added thereto. An MA2 culture medium was used as a culture medium. Cyanidiosyzon merolae were used as unicellular red algae. Dimethyl 2-oxoglutarate was used as a promoter. The promoter was added so that the final concentration of dimethyl 2-oxoglutarate would be 2 mmol/L. After the addition of the promoter, the cultivation was continued for 24 hours more. Thereafter, a bright field image was obtained for the cultured unicellular red algae using a microscope. In addition, the fat and oil of the unicellular red algae were stained with commercially available BODIPY (registered trademark) from the Cosmo Bio, Inc. Then, a fluorescence observation image of the unicellular red algae with stained fat and oil was acquired by using a fluorescence microscope. The same cultivation as in test 1 was performed, and the amount of starch contained in the unicellular red algae after the cultivation was determined. FIG. 5 is a graph showing an example of the influence of addition of a promoter on the amount of accumulation of starch. […] In FIG. 5, “control” represents the results obtained for the unicellular red algae cultured without adding a promoter to the culture medium. […]

For experiment [2], the system named is Cyanidiosyzon merolae. The experiment is described as follows: Fat and oil accumulation in unicellular red algae (BODIPY staining, fluorescence microscopy). The format is cell-based. The conditions noted are these: 2 mmol/L dimethyl 2-oxoglutarate, MA2 culture medium, suspension culture under light, 24 hours after addition, compared with culture without promoter; FIG. 2 vs FIG. 4. As for the experimental part:
Unicellular red algae were cultured in suspension under a light condition and a promoter was added thereto. An MA2 culture medium was used as a culture medium. Cyanidiosyzon merolae were used as unicellular red algae. Dimethyl 2-oxoglutarate was used as a promoter. The promoter was added so that the final concentration of dimethyl 2-oxoglutarate would be 2 mmol/L. After the addition of the promoter, the cultivation was continued for 24 hours more. Thereafter, a bright field image was obtained for the cultured unicellular red algae using a microscope. In addition, the fat and oil of the unicellular red algae were stained with commercially available BODIPY (registered trademark) from the Cosmo Bio, Inc. Then, a fluorescence observation image of the unicellular red algae with stained fat and oil was acquired by using a fluorescence microscope. In addition, cultivation was similarly conducted as described above except that no promoter was added. Then, acquisition of a bright field image, staining of fat and oil, and acquisition of a fluorescence observation image were carried out also for the cultured unicellular red algae.

For the compound `COC(=O)CCC(=O)C(=O)OC` [promoter, dimethyl 2-oxoglutarate], the “amount of accumulation of starch” value with Cyanidiosyzon merolae [1] is “greatly promoted”. Also, the “accumulation of fat and oil (fluorescence caused by BODIPY staining)” value with Cyanidiosyzon merolae [2] is “greatly promoted”.
